Source: ChEMBL document CHEMBL6103543, “Exploring the rhodanine universe: Design and synthesis of fluorescent rhodanine-based derivatives as anti-fibrillar and anti-oligomer agents against α-synuclein and 2N4R tau” (Bioorg Med Chem, 2024)
pEC50: −log10 of the molar value. The source made the active and inactive calls. The rule behind the calls is not given here.

Columns and labels:
Alpha-synuclein [1] = target: T1, Alpha-synuclein (Homo sapiens, UniProt P37840); test: Inhibition of recombinant alpha-synuclein (unknown origin) fibril formation assessed as thioflavin T fluorescence intensity at 100 uM measured every 20 mins by Thioflavin T fluorescence assay (reference value: 100 %)
Alpha-synuclein [2] = target: T1, Alpha-synuclein; test: Inhibition of alpha-synuclein (unknown origin) oligomer formation assessed as reduction in cross linking at 100 uM preincubated with compound followed by Ru(BPY3) addition and measured after 1 sec light irradiation by coomassie blue staining based PICUP assay
Alpha-synuclein [3] = target: T1, Alpha-synuclein; test: Inhibition of recombinant alpha-synuclein (unknown origin) fibril formation assessed as decrease in aggregation at 100 uM incubated for 3 days by transmission electron microscopic analysis; conditions: time 3.0 day
[4] = target: Microtubule-associated protein tau (Homo sapiens) (UniProt P10636); test: Inhibition of Tau 2N4R monomer (unknown origin) fibril formation assessed as decrease in aggregation at 100 uM incubated for 5 days by transmission electron microscopic analysis; conditions: time 5.0 day
Alpha-synuclein [5] = target: T1, Alpha-synuclein; test: Inhibition of alpha-syn inclusion formation in human M17D cells expressing doxycyclin-inducible alpha-syn-S3K::YFP inclusion-prone fusion protein assessed as reduction in inclusions at 5 uM treated with compound starting from 24 hrs post plating followed by doxycyclin addition at 48 hrs and measured 96 hrs post plating by Incucyte-based analysis; assay type: cell-based; conditions: time 72.0 hrs
[6] = Cytotoxicity against human M17D cells expressing doxycyclin-inducible alpha-syn-S3K::YFP inclusion-prone fusion protein assessed as reduction in cell confluency at 1.25 to 5 uM treated with compound starting from 24 hrs post plating followed by doxycyclin addition at 48 hrs and measured 96 hrs post plating by Incucyte-based analysis; assay type: toxicity; conditions: 72 h, dose 1.25-5 µM
[7] = target: Microtubule-associated protein tau (Mus musculus) (UniProt P10637); test: Inhibition of Tau aggregation in mouse N2a cells at 15 uM incubated for 5 days by ThS staining based analysis relative to control; assay type: cell-based; conditions: time 5.0 day
Alpha-synuclein [8] = target: T1, Alpha-synuclein; test: Inhibition of alpha-synuclein (unknown origin) oligomer formation assessed as reduction in cross linking preincubated with compound followed by Ru(BPY3) addition and measured after 1 sec light irradiation by coomassie blue staining based PICUP assay; conditions: dose 50-200 µM
Alpha-synuclein [9] = target: T1, Alpha-synuclein; test: Inhibition of recombinant alpha-synuclein (unknown origin) fibril formation assessed as decrease in thioflavin T fluorescence intensity measured every 20 mins by Thioflavin T fluorescence assay
[10] = target: Microtubule-associated protein tau (Homo sapiens) (UniProt P10636); test: Inhibition of Tau 0N4R (unknown origin) oligomer formation assessed as reduction in cross linking at 50 uM preincubated with compound followed by Ru(BPY3) addition and measured after 15 sec light irradiation by coomassie blue staining based PICUP assay relative to control
[11] = target: Microtubule-associated protein tau (Homo sapiens) (UniProt P10636); test: Inhibition of Tau 0N4R (unknown origin) oligomer formation assessed as reduction in cross linking at 100 uM preincubated with compound followed by Ru(BPY3) addition and measured after 15 sec light irradiation by coomassie blue staining based PICUP assay relative to control
[12] = target: Microtubule-associated protein tau (Homo sapiens) (UniProt P10636); test: Inhibition of Tau 0N4R (unknown origin) oligomer formation assessed as reduction in cross linking at 200 uM preincubated with compound followed by Ru(BPY3) addition and measured after 15 sec light irradiation by coomassie blue staining based PICUP assay relative to control
[13] = target: Microtubule-associated protein tau (Homo sapiens) (UniProt P10636); test: Inhibition of Tau 0N4R (unknown origin) oligomer formation assessed as reduction in cross linking at 300 uM preincubated with compound followed by Ru(BPY3) addition and measured after 15 sec light irradiation by coomassie blue staining based PICUP assay relative to control
Alpha-synuclein [14] = target: T1, Alpha-synuclein; test: Inhibition of alpha-synuclein (unknown origin) oligomer formation at 100 uM incubated for 3 days by Western blot analysis; conditions: time 3.0 day
[15] = target: Microtubule-associated protein tau (Homo sapiens) (UniProt P10636); test: Binding affinity to recombinant human 2N4R fibril extracted from Escherichia coli assessed as decrease in fluorescence intensity at 1 uM incubated for 60 mins by fluorescence spectrophotometric analysis
Alpha-synuclein [16] = target: T1, Alpha-synuclein; test: Binding affinity to alpha-synuclein fibril (unknown origin) assessed as decrease in fluorescence intensity at 1 uM incubated for 60 mins by fluorescence spectrophotometric analysis
[17] = target: Amyloid-beta precursor protein (Homo sapiens) (UniProt P05067); test: Inhibition of HFIP-induced recombinant amyloid beta (1 to 42) (unknown origin) aggregation assessed as decrease in thioflavin T fluorescence intensity at 100 uM measured every 20 mins by Thioflavin T fluorescence assay
[18] = target: Amyloid-beta precursor protein (Homo sapiens) (UniProt P05067); test: Inhibition of amyloid beta aggregation derived from alzhemier's disease patient brain assessed as reduction in plaques at 50 uM incubated for 5 days by transmission electron microscopic analysis; conditions: time 5.0 day
[19] = target: Amyloid-beta precursor protein (Homo sapiens) (UniProt P05067); test: Inhibition of amyloid beta aggregation derived from alzhemier's disease patient brain assessed as reduction in plaque density at 50 uM incubated for 5 days by transmission electron microscopic analysis; conditions: time 5.0 day
Alpha-synuclein [20] = target: T1, Alpha-synuclein; test: Inhibition of alpha-syn inclusion formation in human M17D cells expressing doxycyclin-inducible alpha-syn-S3K::YFP inclusion-prone fusion protein assessed as reduction in inclusions at 1.25 to 40 uM treated with compound starting from 24 hrs post plating followed by doxycyclin addition at 48 hrs and measured 96 hrs post plating by Incucyte-based analysis; assay type: cell-based; conditions: dose 1.25-40 µM, time 72.0 hrs
[21] = Cytotoxicity against human M17D cells expressing doxycyclin-inducible alpha-syn-S3K::YFP inclusion-prone fusion protein assessed as reduction in cell confluency at 1.25 to 40 uM treated with compound starting from 24 hrs post plating followed by doxycyclin addition at 48 hrs and measured 96 hrs post plating by Incucyte-based analysis; assay type: toxicity; conditions: 72 h, dose 1.25-40 µM
[22] = target: Microtubule-associated protein tau (Homo sapiens) (UniProt P10636); test: Inhibition of recombinant Tau 0N4R (unknown origin) aggregation assessed as decrease in fluorescence intensity at 100 uM measured every 5 mins by Thioflavin S fluorescence assay
[23] = target: Microtubule-associated protein tau (Homo sapiens) (UniProt P10636); test: Inhibition of recombinant Tau 2N4R (unknown origin) aggregation assessed as decrease in fluorescence intensity at 100 uM measured every 5 mins by Thioflavin S fluorescence assay
[24] = target: Microtubule-associated protein tau (Homo sapiens) (UniProt P10636); test: Inhibition of recombinant phosphorylated Tau 1N4R (unknown origin) aggregation assessed as decrease in fluorescence intensity at 100 uM measured every 5 mins by Thioflavin S fluorescence assay
Alpha-synuclein [25] = target: T1, Alpha-synuclein; test: Inhibition of alpha-synuclein (unknown origin) oligomer formation assessed as reduction in cross linking at 50 uM preincubated with compound followed by Ru(BPY3) addition and measured after 1 sec light irradiation by coomassie blue staining based PICUP assay relative to control
Alpha-synuclein [26] = target: T1, Alpha-synuclein; test: Inhibition of alpha-synuclein (unknown origin) oligomer formation assessed as reduction in cross linking at 100 uM preincubated with compound followed by Ru(BPY3) addition and measured after 1 sec light irradiation by coomassie blue staining based PICUP assay relative to control
[27] = target: Microtubule-associated protein tau (Homo sapiens) (UniProt P10636); test: Binding affinity to recombinant human 2N4R fibril extracted from Escherichia coli assessed as fluorescence quenching at 1 uM incubated for 40 mins by fluorescence spectrophotometric analysis
Alpha-synuclein [28] = target: T1, Alpha-synuclein; test: Binding affinity to alpha-synuclein fibril (unknown origin) assessed as hypsochromic shift at 1 uM incubated for 40 mins by fluorescence spectrophotometric analysis

Chain of Microtubule-associated protein tau (Homo sapiens) (P10636 whole entry, the tested form may be a part): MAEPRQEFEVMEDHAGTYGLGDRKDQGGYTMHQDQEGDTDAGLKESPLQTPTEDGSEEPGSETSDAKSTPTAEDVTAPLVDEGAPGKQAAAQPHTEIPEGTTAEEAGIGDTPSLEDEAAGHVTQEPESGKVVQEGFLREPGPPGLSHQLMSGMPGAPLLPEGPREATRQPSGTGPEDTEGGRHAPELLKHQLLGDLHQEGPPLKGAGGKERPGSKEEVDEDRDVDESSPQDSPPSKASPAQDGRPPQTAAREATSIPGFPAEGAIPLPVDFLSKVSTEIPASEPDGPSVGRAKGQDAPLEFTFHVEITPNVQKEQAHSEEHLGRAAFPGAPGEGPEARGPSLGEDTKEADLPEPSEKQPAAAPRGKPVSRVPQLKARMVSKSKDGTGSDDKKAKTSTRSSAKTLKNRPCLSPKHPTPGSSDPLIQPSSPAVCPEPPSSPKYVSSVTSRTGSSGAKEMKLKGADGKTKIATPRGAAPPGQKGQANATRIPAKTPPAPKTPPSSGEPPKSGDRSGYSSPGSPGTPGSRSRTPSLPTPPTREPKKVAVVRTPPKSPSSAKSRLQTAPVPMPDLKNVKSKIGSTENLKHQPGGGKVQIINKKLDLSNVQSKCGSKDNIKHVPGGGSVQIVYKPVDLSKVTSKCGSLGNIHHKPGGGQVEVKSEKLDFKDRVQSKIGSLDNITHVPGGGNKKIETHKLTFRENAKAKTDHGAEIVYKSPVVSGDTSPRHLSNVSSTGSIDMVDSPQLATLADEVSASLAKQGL
Chain of Amyloid-beta precursor protein (Homo sapiens) (P05067 whole entry, the tested form may be a part): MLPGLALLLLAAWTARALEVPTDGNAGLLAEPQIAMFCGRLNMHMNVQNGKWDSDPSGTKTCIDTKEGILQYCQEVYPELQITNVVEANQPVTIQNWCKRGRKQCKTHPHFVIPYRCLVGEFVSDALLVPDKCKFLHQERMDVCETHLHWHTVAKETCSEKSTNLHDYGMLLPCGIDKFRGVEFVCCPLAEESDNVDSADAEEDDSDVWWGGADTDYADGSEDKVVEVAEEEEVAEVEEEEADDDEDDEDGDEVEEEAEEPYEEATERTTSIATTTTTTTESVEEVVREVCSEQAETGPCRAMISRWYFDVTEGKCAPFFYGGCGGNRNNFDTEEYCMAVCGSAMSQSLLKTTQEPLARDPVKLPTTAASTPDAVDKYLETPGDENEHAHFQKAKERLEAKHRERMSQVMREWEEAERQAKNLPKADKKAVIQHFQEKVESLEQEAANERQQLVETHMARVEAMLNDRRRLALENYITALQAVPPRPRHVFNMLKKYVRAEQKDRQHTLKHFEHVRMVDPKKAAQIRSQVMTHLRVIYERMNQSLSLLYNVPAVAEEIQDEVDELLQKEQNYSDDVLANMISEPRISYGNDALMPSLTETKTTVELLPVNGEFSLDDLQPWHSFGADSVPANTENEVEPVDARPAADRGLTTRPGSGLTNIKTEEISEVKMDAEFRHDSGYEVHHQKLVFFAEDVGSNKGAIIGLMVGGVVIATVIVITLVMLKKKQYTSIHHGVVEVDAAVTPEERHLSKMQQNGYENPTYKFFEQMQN
Chain of Microtubule-associated protein tau (Mus musculus) (P10637 whole entry): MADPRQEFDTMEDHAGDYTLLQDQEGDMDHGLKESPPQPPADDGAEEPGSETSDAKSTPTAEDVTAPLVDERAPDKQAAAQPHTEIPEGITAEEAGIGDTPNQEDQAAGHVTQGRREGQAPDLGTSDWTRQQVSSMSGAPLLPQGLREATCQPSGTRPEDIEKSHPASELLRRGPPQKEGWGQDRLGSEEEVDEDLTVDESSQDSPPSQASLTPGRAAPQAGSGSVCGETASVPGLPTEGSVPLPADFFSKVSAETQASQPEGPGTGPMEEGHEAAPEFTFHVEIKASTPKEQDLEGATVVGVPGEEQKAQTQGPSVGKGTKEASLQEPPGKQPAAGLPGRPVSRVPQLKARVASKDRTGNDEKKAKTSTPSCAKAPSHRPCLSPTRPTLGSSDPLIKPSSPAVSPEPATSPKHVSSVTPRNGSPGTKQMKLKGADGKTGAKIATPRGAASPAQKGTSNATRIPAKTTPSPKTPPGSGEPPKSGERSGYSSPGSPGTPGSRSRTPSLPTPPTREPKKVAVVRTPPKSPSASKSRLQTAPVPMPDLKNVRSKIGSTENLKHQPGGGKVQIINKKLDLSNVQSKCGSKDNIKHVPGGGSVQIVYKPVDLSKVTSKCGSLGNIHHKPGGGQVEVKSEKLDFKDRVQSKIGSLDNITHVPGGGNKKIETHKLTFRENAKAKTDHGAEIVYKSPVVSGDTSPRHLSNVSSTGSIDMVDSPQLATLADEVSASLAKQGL

Compound: O=C(O)CN1C(=O)/C(=C/c2ccc3ccccc3n2)SC1=S
- Flu intensity (Alpha-synuclein [1]): 5.4%
- inhibition (Alpha-synuclein [2]): inactive

Compound: O=C(O)c1ccc(N2C(=O)/C(=C/c3nc4ccccc4s3)SC2=S)cc1O
- Flu intensity (Alpha-synuclein [1]): 25%
- inhibition (Alpha-synuclein [2]): inactive

Compound: O=C(O)CN1C(=O)/C(=C/c2nc3ccccc3s2)SC1=S
- Flu intensity (Alpha-synuclein [1]): 0.8%
- inhibition (Alpha-synuclein [2]): inactive
- inhibition (Alpha-synuclein [3]): Active; Powerful Inhibition Observed

Compound: O=C(O)c1ccc(N2C(=O)/C(=C/c3c[nH]c4ccccc34)SC2=S)cc1O
- Flu intensity (Alpha-synuclein [1]): 8.9%
- inhibition (Alpha-synuclein [2]): inactive
- inhibition (Alpha-synuclein [3]): Active; Moderate Effect Observed
- inhibition [4]: Active; Moderate Effect Observed
- inhibition (Alpha-synuclein [5]): Active
- Activity [6]: Non-toxic

Compound: O=C(O)CN1C(=O)/C(=C/c2cn(CCO)c3ccccc23)SC1=S
- Flu intensity (Alpha-synuclein [1]): 27%
- inhibition (Alpha-synuclein [2]): Active

Compound: O=C(O)CCN1C(=O)/C(=C/c2cccc3cc[nH]c23)SC1=S
- Flu intensity (Alpha-synuclein [1]): 14.7%
- inhibition (Alpha-synuclein [2]): Active; Weak Inhibition Observed

Compound: O=C(O)CCN1C(=O)/C(=C/c2cc3ccccc3[nH]2)SC1=S
- Flu intensity (Alpha-synuclein [1]): 0.5%
- inhibition (Alpha-synuclein [2]): Active

Compound: O=C(O)c1ccc(N2C(=O)/C(=C/c3coc4ccccc34)SC2=S)cc1O
- Flu intensity (Alpha-synuclein [1]): 29.1%
- inhibition (Alpha-synuclein [2]): inactive

Compound: COc1ccc2c(/C=C3\SC(=S)N(CCC(=O)O)C3=O)c[nH]c2c1
- Flu intensity (Alpha-synuclein [1]): > 100%
- inhibition (Alpha-synuclein [2]): inactive

Compound: O=C(O)CN1C(=O)/C(=C/c2coc3ccccc23)SC1=S
- Flu intensity (Alpha-synuclein [1]): 24.7%
- inhibition (Alpha-synuclein [2]): inactive

Compound: O=C(O)CCN1C(=O)/C(=C/c2ccc3ccccc3n2)SC1=S
- Flu intensity (Alpha-synuclein [1]): 25%
- inhibition (Alpha-synuclein [2]): inactive

Compound: O=C(O)CCN1C(=O)/C(=C/c2csc3ccccc23)SC1=S
- Flu intensity (Alpha-synuclein [1]): -0.05%
- inhibition (Alpha-synuclein [2]): inactive

Compound: O=C(O)c1ccc(N2C(=O)/C(=C/c3ccc4ccccc4n3)SC2=S)cc1
- Flu intensity (Alpha-synuclein [1]): 84.3%
- inhibition (Alpha-synuclein [2]): inactive

Compound: O=C(O)c1ccc(N2C(=O)/C(=C/c3coc4ccccc34)SC2=S)cc1
- Flu intensity (Alpha-synuclein [1]): 15.3%
- inhibition (Alpha-synuclein [2]): inactive

Compound: O=C(O)c1ccc(N2C(=O)/C(=C/c3csc4ccccc34)SC2=S)cc1
- Flu intensity (Alpha-synuclein [1]): 70.4%
- inhibition (Alpha-synuclein [2]): inactive

Compound: O=C1/C(=C/c2ccc(-c3cccc(Cl)c3)o2)SC(=S)N1Cc1nc2ccccc2[nH]1
- inhibition [7]: 70%

Compound: O=C(O)c1ccc(N2C(=O)/C(=C/c3c[nH]c4ccccc34)SC2=S)cc1
- Flu intensity (Alpha-synuclein [1]): 14.9%
- inhibition (Alpha-synuclein [2]): Active
- inhibition (Alpha-synuclein [8]): Dose-dependent-effect

Compound: O=C(O)CCN1C(=O)/C(=C/c2c[nH]c3ccccc23)SC1=S
- Flu intensity (Alpha-synuclein [1]): 1.9%
- pEC50 (Alpha-synuclein [9]): 4.88
- inhibition (Alpha-synuclein [2]): Active
- inhibition (Alpha-synuclein [8]): Dose-dependent-effect
- inhibition [10]: 13%
- inhibition [11]: 13%
- inhibition [12]: 25%
- inhibition [13]: 78%
- inhibition (Alpha-synuclein [14]): Active
- Activity [15]: Active; Bathochromic Shift Of 10 Nm Observed
- Activity (Alpha-synuclein [16]): Active; Bathochromic Shift Of 10 Nm Observed
- inhibition (Alpha-synuclein [3]): Active
- inhibition [4]: Active
- inhibition [17]: Active
- inhibition [18]: Active
- inhibition [19]: Active
- inhibition (Alpha-synuclein [20]): inactive
- Activity [21]: Non-toxic

Compound: O=C(O)c1ccc(N2C(=O)/C(=C/c3csc4ccccc34)SC2=S)cc1O
- Flu intensity (Alpha-synuclein [1]): 56.7%
- inhibition (Alpha-synuclein [2]): inactive

Compound: COc1ccc2c(/C=C3\SC(=S)N(CC(=O)O)C3=O)c[nH]c2c1
- Flu intensity (Alpha-synuclein [1]): 1.9%
- pEC50 (Alpha-synuclein [9]): 5.06
- inhibition [22]: Active
- inhibition [23]: Active
- inhibition [24]: Active
- inhibition (Alpha-synuclein [2]): Active
- inhibition (Alpha-synuclein [8]): Dose-dependent-effect
- inhibition (Alpha-synuclein [25]): 81%
- inhibition (Alpha-synuclein [26]): 100%
- inhibition [10]: 18%
- inhibition [11]: 50%
- inhibition [12]: 70%
- inhibition [13]: 92%
- inhibition (Alpha-synuclein [14]): Active
- Activity [27]: Active
- Activity (Alpha-synuclein [28]): Active; Slight Hypsochromic Shift Observed Without Any Effect On Fluorescence Intensity
- inhibition [17]: Active
- inhibition [18]: Active
- inhibition (Alpha-synuclein [20]): inactive
- Activity [21]: Non-toxic

Compound: O=C(O)CCN1C(=O)/C(=C/c2coc3ccccc23)SC1=S
- Flu intensity (Alpha-synuclein [1]): 31.8%
- inhibition (Alpha-synuclein [2]): inactive

Compound: O=C(O)CCN1C(=O)/C(=C/c2nc3ccccc3s2)SC1=S
- Flu intensity (Alpha-synuclein [1]): 12.1%
- inhibition (Alpha-synuclein [2]): inactive
- inhibition (Alpha-synuclein [3]): Active; Powerful Inhibition Observed

Compound: O=C(O)c1ccc(N2C(=O)/C(=C/c3nc4ccccc4s3)SC2=S)cc1
- Flu intensity (Alpha-synuclein [1]): 31.8%
- inhibition (Alpha-synuclein [2]): inactive

Compound: O=C(O)CN1C(=O)/C(=C/c2cccc3cc[nH]c23)SC1=S
- Flu intensity (Alpha-synuclein [1]): 15.1%
- inhibition (Alpha-synuclein [2]): Active; Weak Inhibition Observed

Compound: O=C(O)CN1C(=O)/C(=C/c2csc3ccccc23)SC1=S
- Flu intensity (Alpha-synuclein [1]): 3.2%
- inhibition (Alpha-synuclein [2]): inactive

Compound: O=C(O)CN1C(=O)/C(=C/c2c[nH]c3ccccc23)SC1=S
- Flu intensity (Alpha-synuclein [1]): 10.1%
- inhibition (Alpha-synuclein [2]): Active
- inhibition (Alpha-synuclein [8]): Dose-dependent-effect

Compound: O=C(O)CN1C(=O)/C(=C/c2cc3ccccc3[nH]2)SC1=S
- Flu intensity (Alpha-synuclein [1]): 0.1%
- inhibition (Alpha-synuclein [2]): Active
